Measurements as given in patent publication US8455550B2, “Derivatives of aminocyclobutane or aminocyclobutene, their method of preparation and their use as medical products” (Pierre Fabre Medicament, priority 2009, dated 2013).

Legend:
Male Sprague Dawley rats [1] = experiment: Forced swimming test, antidepressant activity; assay type: in vivo, rat; conditions: 40 mg/Kg ip, single administration 30 min before test; 5 min observation; FIG. 1
Experimental: The antidepressant activity of the compounds of the invention was evidenced by the forced swimming test in rats (Eur. J. Pharmacol. 1978, 47, 379). This model is widely used since it is predictive of antidepressant activity in man.
The rats (Male Sprague Dawley rats (ICO: OFA SD [IOPS], Iffa Credo, France), are placed in a cylinder (height 45 cm and diameter 20 cm) filled with water at 25° C.±0.5 up to a height of 17 cm. This height allows the rats to swim or float without their paws touching the bottom of the cylinder. 24 h before the test day, the rats are placed in the cylinder for 15 min, after which time they no longer attempt to escape and remain immobile. On the test day, the animals are put back in the cylinder and the duration of immobility of the animal is measured and monitored using audiovisual recording for 5 min. The products of the invention are administered via ip route 30 min before the test. A rat is considered to be immobile when it allows itself to float and only makes small movements to remain on the surface.

Male Sprague Dawley rats [2] = experiment: Formaldehyde test, analgesic activity, late phase; assay type: in vivo, rat; conditions: for Paw licking Score observed at 40 mg/Kg / Paw lifting Score observed at 40 mg/Kg: 40 mg/Kg ip 15 min before formaldehyde 2.5%, late phase 22.5-27.5 min, maximum score 10
Experimental: The analgesic activity of the formula (1) compounds and of milnacipran, chosen as reference compound, was determined using a conventional pain module in which formaldehyde is injected to cause a painful sensation in animals (Eur. J. Pharmacol. 2001, 421, 109). The rats (Male Sprague Dawley rats (ICO: OFA SD [IOPS], Iffa Credo, France) are placed in observation boxes in Plexiglas above an angled mirror to facilitate observation of their hind paws. After thirty minutes habituation, the animals are given an injection of formaldehyde diluted to 2.5% on the plantar surface of the right hind paw. The injection of formaldehyde produces behavioural responses which occur in two phases: • an early phase, 0 to 5 min after injection of formaldehyde, corresponding to stimulation of the receptors specialized in the transmission of nociceptive stimuli. • a late phase which occurs between 20 and 30 min after injection. This phase corresponds to the stimulation of receptors by inflammatory mediators and/or to hyperexcitability of the dorsal horn induced during the first phase. This later phase therefore involves central sensitization and causes pain more representative of neuropathic pain compared with the pain which occurs during the first phase. On this account, only the results obtained in this later phase are taken into consideration in the present application. To study the compounds of the invention, we selected two expressions of painful behaviour (paw licking, lifting of injected paw) and chose as observation period the period which corresponds to the late phase (i.e. 22.5-27.5 min). During this 5 min phase, the animals are observed every 30 s and the following behaviours are recorded: licking or non-licking of the injected hind paw and lifting or not of the injected hind paw. Ten observations give a maximum score of 10 for each parameter. The products of the invention are given via intra-peritoneal route 15 min before the injection of formaldehyde.

adult rat = experiment: Ultrasonic vocalizations (USV) test, antistress/anxiolytic activity; assay type: in vivo; conditions: 22 kHz vocalizations
Experimental: Antistress/anxiolytic activity was determined on a conventional model using ultrasonic vocalizations (USVs) emitted by an adult rat when subjected to stress (Eur. J. Pharmacol. 2003, 463, 133).
The experiments were conducted in standard operative cages (250×320×250 mm) insulated from noise and light. The floor of the cages is covered with a grid in stainless steel and connected to an electric shock generator delivering a fixed intensity of 0.4 mA. The device is provided on one of its walls with a light source (2 lux). The ULTRAVOX system (Noldus, Wageningen, Pays Bas) is used to record ultrasonic vocalizations at a frequency defined by an ultrasound detector, an audio-filter box and acquisition software. For this experiment, the capture frequency was set at 22 kHz. The software allows the recording of all vocalizations of 22 kHz lasting a time of more 100 ms emitted by the animals. The test starts with a habituation session of 11 min 25 s, during which the animals are individually placed in the operative device without being subjected to conditioning (neither light nor electric shock).
During a second phase, the animals are subjected to a conditioning phase of 3 sessions given over 3 consecutive days. […]

| Molecule | Duration of immobility (effect in words) (Male Sprague Dawley rats [1]) | Paw licking Score observed at 40 mg/Kg (Male Sprague Dawley rats [2]) | Paw lifting Score observed at 40 mg/Kg (Male Sprague Dawley rats [2]) | Duration of USVs minimum significant dose (MSD) (adult rat) [mg/kg] | Paw lifting and paw licking in late phase (effect in words) (Male Sprague Dawley rats [2]; ip, late phase of formaldehyde test) |
| --- | --- | --- | --- | --- | --- |
| CCN(CC)C(=O)[C@@]1(c2ccccc2)C[C@H]1CN (racemic) [milnacipran, cis-(±)-N,N-diethyl-(1-phenyl-2-aminomethyl)-cyclopropanecarboxamide, reference compound] | no effect | 2.0 ± 0.8 | 6.3 ± 1.4 | 10 |  |
| (±)-cis-N,N-diethyl (1-phenyl-2-aminomethyl)-cyclobutanecarboxamide [Compound 1a] | significantly decreasing the duration of immobility | 1.0 ± 0.4 | 3.7 ± 1.1 | 10 | significantly reduces both paw lifting and paw licking |
